The source made the active and inactive calls. No rule for the calls is given here.
Test system: rodent carcinogenicity bioassays, tumor incidence
Assay: CCRIS carcinogenicity studies
Details: Species: RAT
Summary of the method: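 Archive of carcinogenicity, mutagenicity, tumor promotion and tumor inhibition results drawn from journals, NCI reports and other sources, expert-reviewed; covers 1985-2011 and is no longer updated.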

Measured: carcinogen call

CCN(N=O)C(N)=O
active: Strain/Sex: F344/MALE, Route: GAVAGE, Dose: 0, 2.4 MG IN 0.2 ML ETHYL ACETATE/CORN OIL (1:1) 2/WK FOR 28 WK (TOTAL DOSE: 135 MG) (STUDY DURATION: 80 WK), Tumor Site: Type of Lesion: FORESTOMACH: CARCINOMA, LUNG: CARCINOMA OR ADENOMA active; positive | Strain/Sex: F344/MALE, Route: GAVAGE, Dose: 0, 6 MG/ML (TOTAL DOSE 0; 0.4 MMOL) IN 2 ML ETHYL ACETATE AND CORN OIL (1:2) 2/WK FOR 20 WK (STUDY DURATION: LIFETIME), Dose: 0, 6 MG/ML (TOTAL DOSE 0; 0.4 MMOL) IN 2 ML ETHYL ACETATE AND CORN OIL (1:2) 2/WK FOR 20 WK (STUDY DURATION: LIFETIME), Tumor Site: Type of Lesion: FORESTOMACH: SQUAMOUS CELL CARCINOMA, THYROID: C-CELL TUMOR, FOLLICULAR CELL TUMOR, LUNG: TUMOR, NERVOUS SYSTEM: TUMOR;, Tumor Site: Type of Lesion: FORESTOMACH: SQUAMOUS CELL CARCINOMA, THYROID: C-CELL TUMOR, FOLLICULAR CELL TUMOR, LUNG: TUMOR, NERVOUS SYSTEM: TUMOR active; positive | Strain/Sex: F344/MALE, Route: GAVAGE, Dose: 0, 6 MG/ML IN 0.2 ML ETHYL ACETATE AND CORN OIL 2/WK FOR 20 WK (STUDY DURATION: LIFESPAN), Tumor Site: Type of Lesion: FORESTOMACH: TUMOR, THYROID: C-CELL TUMOR, FOLLICULAR CELL TUMOR, LUNG: TUMOR, NERVOUS SYSTEM: TUMOR, COLON: TUMOR, PERI, Tumor Site: Type of Lesion: FORESTOMACH: TUMOR, THYROID: C-CELL TUMOR, FOLLICULAR CELL TUMOR, LUNG: TUMOR, NERVOUS SYSTEM: TUMOR, COLON: TUMOR, PERI active; positive | Strain/Sex: F344/MALE, Route: GAVAGE, Dose: 0, 12 MG/ML (TOTAL DOSE 0; 1.1 MMOL) IN 2 ML ETHYL ACETATE AND CORN OIL (1:2) 2/WK FOR 28 WK (STUDY DURATION: LIFETIME), Dose: 0, 12 MG/ML (TOTAL DOSE 0; 1.1 MMOL) IN 2 ML ETHYL ACETATE AND CORN OIL (1:2) 2/WK FOR 28 WK (STUDY DURATION: LIFETIME), Tumor Site: Type of Lesion: FORESTOMACH: SQUAMOUS CELL CARCINOMA, LUNG: TUMOR, ILEUM/JEJUNUM: TUMOR, BODY CAVITY: MESOTHELIOMA, ZYMBAL GLAND: TUMOR;, Tumor Site: Type of Lesion: FORESTOMACH: SQUAMOUS CELL CARCINOMA, LUNG: TUMOR, ILEUM/JEJUNUM: TUMOR, BODY CAVITY: MESOTHELIOMA, ZYMBAL GLAND: TUMOR active; positive | Strain/Sex: F344/MALE, Route: GAVAGE, Dose: 0, 12 MG/ML IN 0.2 ML ETHYL ACETATE AND CORN OIL 2/WK FOR 28 WK (STUDY DURATION: LIFESPAN), Tumor Site: Type of Lesion: FORESTOMACH: TUMOR, LUNG: TUMOR, ILEUM/JEJUNUM: TUMOR, PERITONEUM: MESOTHELIOMA, Tumor Site: Type of Lesion: FORESTOMACH: TUMOR, LUNG: TUMOR, ILEUM/JEJUNUM: TUMOR, PERITONEUM: MESOTHELIOMA active; positive | Strain/Sex: F344/MALE, Route: ORAL, Dose: 0, 0.3, 1, 3, 10 PPM IN DRINKING WATER FOR 104 WK (STUDY DURATION: 111 WK), Dose: 0, 0.3, 1, 3, 10 PPM IN DRINKING WATER FOR 104 WK (STUDY DURATION: 111 WK), Tumor Site: Type of Lesion: BRAIN: GLIOMA, MAMMARY GLAND: FIBROMA, LUNG: ADENOMA, LUNG: ADENOCARCINOMA, PERITONEUM: MESOTHELIOMA, Tumor Site: Type of Lesion: BRAIN: GLIOMA, MAMMARY GLAND: FIBROMA, LUNG: ADENOMA, LUNG: ADENOCARCINOMA, PERITONEUM: MESOTHELIOMA active; positive | Strain/Sex: SPRAGUE-DAWLEY/FEMALE, Route: IN UTERO, Dose: 0, 2.5, 10 MG/KG BW ONCE ADMINISTERED INTRAVENOUSLY ON DAY 15 OF GESTATION (STUDY DURATION: 104 WK), Dose: 0, 2.5, 10 MG/KG BW ONCE ADMINISTERED INTRAVENOUSLY ON DAY 15 OF GESTATION (STUDY DURATION: 104 WK), Tumor Site: Type of Lesion: BRAIN: GLIOMA active; positive | Strain/Sex: SPRAGUE-DAWLEY/MALE, Route: IN UTERO, Dose: 0, 2.5, 10 MG/KG BW ONCE ADMINISTERED INTRAVENOUSLY ON DAY 15 OF GESTATION (STUDY DURATION: 104 WK), Dose: 0, 2.5, 10 MG/KG BW ONCE ADMINISTERED INTRAVENOUSLY ON DAY 15 OF GESTATION (STUDY DURATION: 104 WK), Tumor Site: Type of Lesion: BRAIN: GLIOMA active; positive | Strain/Sex: SPRAGUE-DAWLEY, Route: INTRAVENOUSLY TO MATERNAL RATS AT 15 D OF GESTATION, PROGENY OBSERVED, Dose: 0, 2.5, 6.25, 10.0 MG/KG BW (STUDY DURATION: 24 MO), Dose: 0, 2.5, 6.25, 10.0 MG/KG BW (STUDY DURATION: 24 MO), Tumor Site: Type of Lesion: BRAIN: OLIGODENDRO-GLIOMA AND MIXED GLIOMA active; positive | Strain/Sex: SPRAGUE-DAWLEY, Route: INTRAVENOUSLY TO MOTHERS AT 15 D OF GESTATION, PROGENY OBSERVED, Dose: 0, 2.5, 6.25, 10.0 MG/KG BW (STUDY DURATION: 2 YRS), Dose: 0, 2.5, 6.25, 10.0 MG/KG BW (STUDY DURATION: 2 YRS), Tumor Site: Type of Lesion: CRANIAL NERVE: TUMORS active; positive | Strain/Sex: SPRAGUE-DAWLEY, Route: INTRAVENOUSLY TO MOTHERS AT 15 D OF GESTATION, PROGENY OBSERVED, Dose: 0, 2.5, 6.25, 10.0 MG/KG BW (STUDY DURATION: 2 YRS), Dose: 0, 2.5, 6.25, 10.0 MG/KG BW (STUDY DURATION: 2 YRS), Tumor Site: Type of Lesion: SPINAL NERVE: TUMORS active; positive | Strain/Sex: SPRAGUE-DAWLEY, Route: INTRAVENOUSLY TO MOTHERS AT 15 D OF GESTATION, PROGENY OBSERVED, Dose: 0, 2.5, 6.25, 10.0 MG/KG BW (STUDY DURATION: 24 MO), Dose: 0, 2.5, 6.25, 10.0 MG/KG BW (STUDY DURATION: 24 MO), Tumor Site: Type of Lesion: SPINAL CORD: TUMORS active; positive | Strain/Sex: WISTAR/MALE, FEMALE, Route: SUBCUTANEOUS, Dose: 0, 60 MG/KG BW ADMINISTERED TO 3 DAY OLD RATS (STUDY DURATION: 12 MO), Tumor Site: Type of Lesion: CENTRAL NERVOUS SYSTEM: GLIOMA active; positive | Strain/Sex: WISTAR/MALE, FEMALE, Route: TRANSPLACENTAL, Dose: 0, 60 MG/KG BW INTRAVENOUS DOSE ADMINISTERED TO LATE GESTATIONAL RATS AND OFFSPRING OBSERVED FOR 12 MO (STUDY DURATION:, Tumor Site: Type of Lesion: CENTRAL NERVOUS SYSTEM: GLIOMA active; positive | Strain/Sex: WISTAR/MALE, Route: INTRAPERITONEAL, Dose: 300 MG/KG BW 1/WK FOR 45 WK (STUDY DURATION: 45 WK), Tumor Site: Type of Lesion: INTEGUMENTARY SYSTEM (SUBCUTANEOUS TISSUE): SPINDLE CELL SARCOMA active; positive

Source: PubChem BioAssay AID1259411 (Chemical Carcinogenesis Research Information System (CCRIS), 2018)
